The source of these data is patent publication US6734139B1, “N-aryl-uracile-based herbicides” (priority 1999, dated 2004).

Assay type in all cases: in vivo
Test [1] has as its system weeds. The experiment in a line: Pre-emergence test (herbicidal action against weeds, Colby). The source says: The expected action for a given combination of two herbicides can be calculated as follows (cf. COLBY, S. R.: “Calculating synergistic and antagonistic responses of herbicide combinations”, Weeds 15, Pages 20-22, 1967):
If the actual damage exceeds the calculated value, the combination has a superadditive effect, that is to say a synergistic effect.
The theoretically expected activity for a given combination of three herbicides can likewise be found in the literature mentioned above.
Solvent: 2 to 3 parts by weight of acetone or N,N-dimethyl-formamide
Emulsifier: 1 part by weight of alkylaryl polyglycol ether
To produce a suitable preparation of active compound, 1 part by weight of active compound is mixed with the stated amount of solvent, the stated amount of emulsifier is added and the concentrate is diluted with water to the desired concentration. Formulated products are dissolved in water and then diluted with water to the desired concentration.
The solutions of the other mixing components (active compounds or safeners) are prepared analogously. The separately prepared solutions of the various mixing components are then combined and, if appropriate, additional substances (formulation auxiliaries, additives, etc.) are added and, if appropriate, water is added to prepare the desired dilution.
Seeds of the test plants are sown in standard soil. After 24 hours, the soil is sprayed with the preparation of active compound such that the particular amount of active compound desired in each case is applied per unit area. The concentration of active compound in the spray liquor is chosen such that the particular amount of active compound desired in each case is applied in 500 litres of water per hectare. The containers with the test plants are kept in a greenhouse at controlled temperature and controlled illumination until evaluation.
After three weeks, the degree of damage to the plants is rated in % damage in comparison to the development of the untreated control. The figures denote
0%=no effect/no damage (like untreated control)

The test system of test [2] is Setaria. The experiment in a line: Pre-emergence test (herbicidal action, Colby): Setaria. To be noted: 250 g of a.i./ha.
In test [3] the test system is Cyperus. The experiment in a line: Pre-emergence test (herbicidal action, Colby): Cyperus.
The subject of test [4] is Stellaria. The experiment in a line: Pre-emergence test (herbicidal action, Colby): Stellaria. Conditions: 125 g of a.i./ha.
Test [5] concerns Echinochloa. The experiment in a line: Pre-emergence test (herbicidal action, Colby): Echinochloa. To be noted: 250 g of a.i./ha.
The subject of test [6] is Alopecurus. The experiment in a line: Pre-emergence test (herbicidal action, Colby): Alopecurus. Conditions: 125 g of a.i./ha.
For test [7], the system named is Matricaria. The experiment in a line: Pre-emergence test (herbicidal action, Colby): Matricaria. Conditions: 125 g of a.i./ha.
The subject of test [8] is Digitaria. The experiment in a line: Pre-emergence test (herbicidal action, Colby): Digitaria. Conditions: 125 g of a.i./ha.
Test [9] concerns Abutilon. The experiment in a line: Pre-emergence test (herbicidal action, Colby): Abutilon.
The subject of test [10] is Polygonum. The experiment in a line: Pre-emergence test (herbicidal action, Colby): Polygonum.

Molecules are shown by their SMILES.

`COc1cc(OC)nc(NC(=O)NS(=O)(=O)c2cc(NC=O)ccc2C(=O)N(C)C)n1` [foramsulfuron, 2-[[[[(4,6-dimethoxy-2-pyrimidinyl)-amino]-carbonyl]-amino]-sulphonyl]-4-formylamino-N,N-dimethyl-benzamide]: the “Cassia (pre-emergence test)” value in [1] (Table A27, 15 g of a.i./ha) was 50. In [1] (Table A27, 30 g of a.i./ha), the “Abutilon (pre-emergence test)” value is listed as 50 and the “Polygonum (pre-emergence test)” value is recorded as 40.
As for `CCNc1nc(Cl)nc(NC(C)C)n1` [atrazine, 6-chloro-4-ethylamino-2-isopropylamino-1,3,5-triazine], in test [1] (Table A25, 500 g of a.i./ha), the “Avena (pre-emergence test)” value is 80, the “Bromus (pre-emergence test)” value came to 70, the “Cyperus (pre-emergence test)” value amounted to 50 and the “Lolium (pre-emergence test)” value worked out at 90.
Turning to `CCCN(CCC)c1c([N+](=O)[O-])cc(C(F)(F)F)cc1[N+](=O)[O-]` [trifluralin, 1-amino-2,6-dinitro-N,N-di-propyl-4-trifluoromethyl-benzene], in test [1] (Table A24, 250 g of a.i./ha), the “Cassia (pre-emergence test)” value was found to be 80, the “Lolium (pre-emergence test)” value was determined as 95 and the “Setaria (pre-emergence test)” value turned out to be 95. Further, in test [1] (Table A24, 500 g of a.i./ha), the “Echinochloa (pre-emergence test)” value is listed as 95 and the “Veronica (pre-emergence test)” value turned out to be 95.
In the case of `CCOCN(C(=O)CCl)c1c(C)cccc1CC` [acetochlor, 2-chloro-N-(ethoxymethyl)-N-(2-ethyl-6-methyl-phenyl)-acetamide], the Setaria in test [2] worked out at 80%. Moreover, in test [3] (125 g of a.i./ha), the Cyperus is listed as 60%. In test [3] (250 g of a.i./ha), this compound returned a Cyperus of 60%. The Stellaria in test [4] stood at 80%. In addition, the Echinochloa in test [5] was determined as 80%. The compound also displayed an Alopecurus in test [6] of 30%. The same compound came in with a Matricaria in test [7] of 90%. Besides, in [8], the Digitaria came out at 80%. For the same compound, in test [1] (Table A20, 125 g of a.i./ha), the “Chenopodium (pre-emergence test)” value came out at 30, the “Datura (pre-emergence test)” value came out at 30, the “Galium (pre-emergence test)” value is 0 and the “Ipomoea (pre-emergence test)” value was found to be 0. In [1] (Table A20, 250 g of a.i./ha), the “Datura (pre-emergence test)” value was 50, the “Galium (pre-emergence test)” value amounted to 20, the “Ipomoea (pre-emergence test)” value was determined as 20 and the “Lolium (pre-emergence test)” value was 90. In addition, in test [9] (125 g of a.i./ha), the pest or weed control at 125 g/ha stood at 0%. The same compound had a pest or weed control at 250 g/ha in [9] (250 g of a.i./ha) of 40%. This compound returned a Polygonum in [10] (125 g of a.i./ha) of 30%. This compound also returned a Polygonum in test [10] (250 g of a.i./ha) of 30%.

The term pest or weed control denotes how far the test organism was held down. A low value points to a weak effect.
